Data taken from PMC9146228, “Bioactivity of Novel Pyrazole-Thiazolines Scaffolds against Trypanosoma cruzi: Computational Approaches and 3D Spheroid Model on Drug Discovery for Chagas Disease” (Pharmaceutics, 2022).

The compounds below were run on T. cruzi cysteine proteases (trypomastigote protein extract) (assay: Proteinase activity in solution (Z-FR-AMC)). Conditions: from the lowest concentration analyzed (6.25 µM).
Type: biochemical, Trypanosoma cruzi
Description: Trypomastigote protein extracts (Dm28c-Luc; 10^8 parasites/mL) were obtained as previously described. The cysteine protease activity of the total protein extracts (5 µg) was measured using the reaction buffer (CH3COONa 10 mM, pH 5.0 containing 1 mM DTT), in the presence of the fluorogenic peptide substrate […], CBZ-L-Phenylalanyl-l-Arginine amide (Z -FR-AMC), and serial dilutions of pyrazole-thiazolines derivatives (100–6.25 µM). The samples were incubated for 45 min at room temperature. The variation in arbitrary fluorescence units (AFU), corresponding to the enzymatic cleavage of the fluorogenic substrate, was monitored in a SpectraMax M2e reader (Molecular Devices, Sunnyvale, CA, USA) for 1 h, with excitation values at 370 nm and emission values at 460 nm. Extracts incubated with 0.5% DMSO or with cysteine protease inhibitor E-64 were used as […]. […] The inhibitory activity was expressed as percentage inhibition.

| Structure (SMILES) | inhibition of cysteine protease activity |
| --- | --- |
| CC(C)C[C@H](NC(=O)[C@H]1O[C@@H]1C(=O)O)C(=O)NCCCCN=C(N)N [Compound E-64, E-64, reference compound] | more than 80% |

Same assay, conditions: up to 100 µM, Z-FR-AMC substrate

| Structure (SMILES) | maximum inhibition of cysteine protease activity [%] |
| --- | --- |
| Clc1ccc(-n2cc(C3=NCCS3)cn2)cc1Cl [Compound 2e, 2-(1-(3,4-dichlorophenyl)-1H-pyrazol-4-yl)-4,5-dihydrothiazole] | ≤ 10 |

These compounds were tested on T. cruzi (Dm28c-Luc)-infected Vero cell spheroids (assay: 3D culture model: T. cruzi-infected Vero cell spheroids). Conditions: 100 μM.
Type: cell-based, Trypanosoma cruzi
Description: Tridimensional Vero cell cultures were obtained as previously described. Briefly, the isolated cells (2 × 10^4/well) were cultured in 96-well U-bottom plates previously coated with 1% agarose. The spheroids were kept for 5 days at 37 °C in RPMI 1640 medium supplemented with 10% FBS for complete three-dimensional organization. Both 2D and 3D culture models were used for trypanocidal activity assays.
Vero cell spheroids were infected for 24 h with 2 × 10^5 trypomastigotes (Dm28c-Luc). […] Parasite load was assessed by the luminescence reaction after adding the luciferase substrate (luciferin 300 µg/mL). In addition, fluorescence microscopy images of untreated and treated T. cruzi-infected spheroids were acquired after fixing the cultures with 4% paraformaldehyde in PBS and 4′,6-diamidino-2-phenylindole (DAPI) staining, a DNA dye. The samples were observed under the Zeiss Axio Imager M2 fluorescence microscope (Carl Zeiss, Baden-Württemberg, Germany).

| Structure (SMILES) | DAPI staining fluorescence microscopy of infected microtissue |
| --- | --- |
| Clc1ccc(-n2cc(C3=NCCS3)cn2)cc1Cl [Compound 2e, 2-(1-(3,4-dichlorophenyl)-1H-pyrazol-4-yl)-4,5-dihydrothiazole] | reduction in parasite load |

Same assay, conditions: 72 h, concentration higher than IC90 (100 μM in Figure 6 legend); untreated ALU = 166,678 ± 22,824

| Structure (SMILES) | parasite load, arbitrary luminescence unit (ALU) |
| --- | --- |
| Clc1ccc(-n2cc(C3=NCCS3)cn2)cc1Cl [Compound 2e, 2-(1-(3,4-dichlorophenyl)-1H-pyrazol-4-yl)-4,5-dihydrothiazole] | 15,110 ± 1990 ALU |

The compounds below were run on T. cruzi Dm28c-Luc in Vero cell cultures (assay: Reversibility (washout) assay). Conditions: Trypanosoma cruzi, Vero; 100 µM, 72 h treatment then 72 h drug-free; read-out: inhibition of cell monolayer infection (intracellular amastigotes) after washout.
Type: cell-based, Trypanosoma cruzi
Description: Then, the cultures were washed with PBS, and maintained for another 72 h at 37 °C in a drug-free medium. Trypomastigotes released in the culture supernatant were detected by transferring the culture medium to 96-well plates, followed by luciferin (300 µg/mL) addition. Viable intracellular amastigotes were also accessed by adding luciferin solution to the cell monolayers.

| Structure (SMILES) | inhibition at 100 µM [%] |
| --- | --- |
| Clc1ccc(-n2cc(C3=NCCS3)cn2)cc1Cl [Compound 2e, 2-(1-(3,4-dichlorophenyl)-1H-pyrazol-4-yl)-4,5-dihydrothiazole] | 69 |

The compounds below were run on T. cruzi (Dm28c-Luc) trypomastigotes (assay: microbe, parasite or virus in culture). Conditions: Dm28c-Luc, 24 h, mean ± SD; read-out: Trypanocidal Activity Trypomastigotes IC50.
Type: cell-based, Trypanosoma cruzi
Description: The screening assays were performed with T. cruzi clone Dm28c (TcI) genetically modified to express luciferase gene (Dm28c-Luc), kindly provided by Dr. Cristina Henriques. Trypomastigotes were isolated from T. cruzi-infected Vero cell monolayers (10:1 parasites/host cell ratio). On the 4th day post-infection (dpi), free trypomastigotes in the culture supernatant were harvested, and the number of parasites/mL was quantified in a Neubauer chamber.
The trypanocidal activity of the pyrazole-thiazoline derivatives was evaluated against trypomastigote and intracellular amastigote forms of T. cruzi (Dm28c-Luc). Tissue-derived trypomastigotes (1 × 10^6 parasites/well) were incubated with pyrazole-thiazoline derivatives and Bz in different concentrations (0.41–100 µM) for 24 h at 37 °C in a humidified atmosphere and 5% CO2. The parasite viability was determined by the addition of luciferin (300 µg/mL), followed by luminescence detection on the GloMax microplate reader (Promega Corporation, Madison, WI, USA).
(§1) After 72 h of treatment, luciferin (300 µg/mL) was added to the culture, and the viability of the parasites was assessed by reading the luminescent signal on the GloMax reader (Promega Corporation, Madison, WI, USA). Controls were also performed in non-toxic concentrations of DMSO (≤ 1%). The concentration that reduces the number of viable parasites by 50% (IC50) or 90% (IC90) was calculated by linear regression. The selectivity index (SI) was calculated as CC50/IC50 for each parasite form.

| Structure (SMILES) | IC50 [µM] |
| --- | --- |
| Clc1ccc(-n2cc(C3=NCCS3)cn2)cc1Cl [Compound 2e, 2-(1-(3,4-dichlorophenyl)-1H-pyrazol-4-yl)-4,5-dihydrothiazole] | 1.9 ± 0.4 |

Same assay, conditions: Trypanosoma cruzi, 24 h, Dm28c-Luc, 24 h, mean ± SD; read-out: Trypanocidal Activity Trypomastigotes IC50

| Structure (SMILES) | IC50 [µM] |
| --- | --- |
| Clc1ccc(-n2cc(C3=NCCS3)cn2)cc1Cl [Compound 2e, 2-(1-(3,4-dichlorophenyl)-1H-pyrazol-4-yl)-4,5-dihydrothiazole] | ≤ 2.1 |

Same assay, conditions: Trypanosoma cruzi; Dm28c-Luc, 24 h, mean ± SD; read-out: Trypanocidal Activity Trypomastigotes IC90

| Structure (SMILES) | IC90 [µM] |
| --- | --- |
| Clc1ccc(-n2cc(C3=NCCS3)cn2)cc1Cl [Compound 2e, 2-(1-(3,4-dichlorophenyl)-1H-pyrazol-4-yl)-4,5-dihydrothiazole] | 6.9 ± 2 |

What follows are compounds tested on T. cruzi (Dm28c-Luc) intracellular amastigotes (assay: Trypanocidal activity against intracellular amastigotes in infected Vero cell monolayers). Conditions: Dm28c-Luc in Vero cells, 72 h, mean ± SD; read-out: Trypanocidal Activity Intracellular Amastigotes IC50.
Type: cell-based, Trypanosoma cruzi
Description: The susceptibility of intracellular amastigotes to pyrazole-thiazoline derivatives (series 1 and 2) was evaluated using 24 h T. cruzi-infected Vero cell monolayers (10:1 parasite/host cell ratio). Then, the cultures were washed with PBS to remove non-internalized parasites, and 200 μL of fresh medium with a serial dilution of pyrazole-thiazoline derivatives and Bz (0.41–100 µM) was added for 72 h at 37 °C.
as §1

| Structure (SMILES) | IC50 [µM] |
| --- | --- |
| Clc1ccc(-n2cc(C3=NCCS3)cn2)cc1Cl [Compound 2e, 2-(1-(3,4-dichlorophenyl)-1H-pyrazol-4-yl)-4,5-dihydrothiazole] | 7.84 ± 1 |

Same assay, conditions: Trypanosoma cruzi, Vero, 72 h, Dm28c-Luc in Vero cells, 72 h, mean ± SD; read-out: Trypanocidal Activity Intracellular Amastigotes IC50

| Structure (SMILES) | IC50 [µM] |
| --- | --- |
| Clc1ccc(-n2cc(C3=NCCS3)cn2)cc1Cl [Compound 2e, 2-(1-(3,4-dichlorophenyl)-1H-pyrazol-4-yl)-4,5-dihydrothiazole] | < 10 |

Same assay, conditions: Trypanosoma cruzi, Vero, pIC50 = −log IC50, Dm28c-Luc clone; read-out: Intracellular Amastigotes pIC50 (converted)

| Structure (SMILES) | IC50 [µM] |
| --- | --- |
| Clc1ccc(-n2cc(C3=NCCS3)cn2)cc1Cl [Compound 2e, 2-(1-(3,4-dichlorophenyl)-1H-pyrazol-4-yl)-4,5-dihydrothiazole] | < 6.92 |

Same assay, conditions: Trypanosoma cruzi; Dm28c-Luc in Vero cells, 72 h, mean ± SD; read-out: Trypanocidal Activity Intracellular Amastigotes IC90

| Structure (SMILES) | IC90 [µM] |
| --- | --- |
| Clc1ccc(-n2cc(C3=NCCS3)cn2)cc1Cl [Compound 2e, 2-(1-(3,4-dichlorophenyl)-1H-pyrazol-4-yl)-4,5-dihydrothiazole] | 30.4 ± 3.7 |
